Reference: patent publication US11884675B2, “Heterocyclic compounds as triggering receptor expressed on myeloid cells 2 agonists and methods of use” (AMGEN INC., priority 2020, dated 2024)

The compounds below were run against hTREM2 (Homo sapiens, UniProt Q9NZC2) (assay: TREM2 agonist potency by Syk phosphorylation (AlphaLisa) in HEK293T-hTREM2 cells, used for Examples 306-429). Settings: HEK293 Cells.
Type: cell-based
Design: expressed in transfected cells; host or cells: HEK293T (HEK293T-hTREM2 cells)
Summary of the method: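 HEK293T cells expressing human TREM2 and DAP12, plated 20-24 h before, were exposed to compounds for 45 min at room temperature, then lysed. Phospho-Syk read by AlphaLisa; % activation from a standard curve and EC50 from a four-parameter log(agonist) fit.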

hTREM2, sequence (Q9NZC2 19-230): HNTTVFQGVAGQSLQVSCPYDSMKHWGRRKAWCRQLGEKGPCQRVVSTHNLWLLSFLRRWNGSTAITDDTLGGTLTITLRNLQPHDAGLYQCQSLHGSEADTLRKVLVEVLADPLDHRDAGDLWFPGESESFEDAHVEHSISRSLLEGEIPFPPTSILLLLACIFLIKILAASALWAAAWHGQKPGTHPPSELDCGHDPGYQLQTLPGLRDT
hTREM2, sequence (O43914 22-113 partner): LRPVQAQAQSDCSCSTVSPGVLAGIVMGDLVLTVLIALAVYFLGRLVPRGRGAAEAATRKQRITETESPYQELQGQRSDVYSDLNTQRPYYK

Row | SMILES | EC50
1 | Cc1cnc2c(-c3ccc(F)cc3F)nc(N3C[C@H](C)O[C@@H](c4cnn(C5CC5)c4)C3)nc2n1 (racemic) [Example 370, 2-(1-cyclopropyl-1H-pyrazol-4-yl)-4-(4-(2,4-difluorophenyl)-7-methylpteridin-2-yl)-6-methylmorpholine] | 50 to 500 nM
2 | Cc1cc([C@@H]2CN(c3cc4nc(C)cnc4c(-c4ccc(F)cc4F)n3)CCO2)ccn1 [Example 333, (R)-4-(5-(2,4-difluorophenyl)-2-methylpyrido[3,4-b]pyrazin-7-yl)-2-(2-methylpyridin-4-yl)morpholine] | 500 to 3000 nM
3 | Cc1nc2nc(N3C[C@@H](C)O[C@@H](c4cnn(C5CC5)c4)C3)nc(-c3ccc(Cl)cc3F)c2nc1C [Example 425, (2S,6R)-4-(4-(4-chloro-2-fluorophenyl)-6,7-dimethylpteridin-2-yl)-2-(1-cyclopropyl-1H-pyrazol-4-yl)-6-methylmorpholine] | ≤ 50 nM
4 | Cc1cnc2c(C34CC(C(F)(F)F)(C3)C4)nc([C@H]3CCO[C@@H](c4cnn(C5CC5)c4)C3)nc2n1 [Example 407, 2-((2R,4S)-2-(1-cyclopropyl-1H-pyrazol-4-yl)tetrahydro-2H-pyran-4-yl)-7-methyl-4-(3-(trifluoromethyl)bicyclo[1.1.1]pentan-1-yl)pteridine] | ≤ 50 nM
5 | Cc1nc2nc([C@H]3CCO[C@@H](c4cnn(C5CC5)c4)C3)nc(-c3ccc(C(F)(F)F)cc3F)c2nc1C [Example 413, 2-((2R,4S)-2-(1-cyclopropyl-1H-pyrazol-4-yl)tetrahydro-2H-pyran-4-yl)-4-(2-fluoro-4-(trifluoromethyl)phenyl)-6,7-dimethylpteridine] | ≤ 50 nM
6 | Cc1cc(C2CN(c3nc(-c4cc(F)c(Cl)cc4F)c4nc(C)c(C)nc4n3)CCO2)ccn1 (stereo not shown) [Example 352, 4-(4-(4-chloro-2,5-difluorophenyl)-6,7-dimethylpteridin-2-yl)-2-(2-methylpyridin-4-yl)morpholine] | ≤ 50 nM
7 | Cc1cc([C@H]2C[C@H](c3cc4nc(C)c(C)nc4c(-c4ccc(C(F)(F)F)nc4)n3)CCO2)ccn1 (racemic) [Example 306] | 50 to 500 nM
8 | Cc1nc2nc(C3CCOC(c4cnn(C5CC5)c4)C3)cc(-c3ccc(Cl)cc3F)c2nc1C (stereo not shown) [Example 402, 8-(4-chloro-2-fluorophenyl)-6-(2-(1-cyclopropyl-1H-pyrazol-4-yl)tetrahydro-2H-pyran-4-yl)-2,3-dimethylpyrido[2,3-b]pyrazine] | ≤ 50 nM
9 | COc1cc(C2CN(c3nc4nc(C)c(C)nc4c([C@]45C[C@](C(F)(F)F)(C4)C5)n3)CCO2)ccn1 (mixture of isomers) [Example 318, 4-(6,7-dimethyl-4-(3-(trifluoromethyl)bicyclo[1.1.1]pentan-1-yl)pteridin-2-yl)-2-(2-methoxypyridin-4-yl)morpholine] | ≤ 50 nM
10 | Cc1cc([C@H]2CN(c3nc(-c4ccc(Cl)c(F)c4F)c4nc(C)c(C)nc4n3)CCO2)ccn1 [Example 363, (S)-4-(4-(4-chloro-2,3-difluorophenyl)-6,7-dimethylpteridin-2-yl)-2-(2-methylpyridin-4-yl)morpholine] | ≤ 50 nM
11 | Cc1cnc2c(-c3ccc(F)cc3F)nc([C@H]3CCO[C@@H](c4cnn(C5CC5)c4)C3)nc2n1 [Example 330, 2-[(2R,4S)-2-(1-cyclopropylpyrazol-4-yl)tetrahydropyran-4-yl]-4-(2,4-difluorophenyl)-7-methyl-pteridine] | ≤ 50 nM
12 | Cc1nc2cc([C@H]3C[C@@H](C)O[C@@H](c4cnn(C5CC5)c4)C3)nc(-c3ccc(F)cc3F)c2nc1C [Example 380, 7-[(2R,4S,6R)-2-(1-cyclopropylpyrazol-4-yl)-6-methyl-tetrahydropyran-4-yl]-5-(2,4-difluorophenyl)-2,3-dimethyl-pyrido[3,4-b]pyrazine] | ≤ 50 nM
13 | Cc1cc(C2CN(c3cc4nc(C)c(C)nc4c(-c4ccc(C(F)(F)F)nc4)n3)CCO2)ccn1 (stereo not shown) [Example 312, 4-(2,3-dimethyl-5-(6-(trifluoromethyl)pyridin-3-yl)pyrido[3,4-b]pyrazin-7-yl)-2-(2-methylpyridin-4-yl)morpholine] | ≤ 50 nM
14 | Cc1cnc2c(-c3ccc(F)cc3F)nc([C@H]3CCO[C@H](c4cnn(C5CC5)c4)C3)nc2n1 [Example 339, 2-((2S,4S)-2-(1-cyclopropyl-1H-pyrazol-4-yl)tetrahydro-2H-pyran-4-yl)-4-(2,4-difluorophenyl)-7-methylpteridine] | 50 to 500 nM
15 | Cc1nc2nc(N3CC(C)OC(c4cnn(C5CC5)c4)C3)nc(-c3ccc(F)cc3F)c2nc1C (stereo not shown) [Example 369, 2-(1-cyclopropyl-1H-pyrazol-4-yl)-4-(4-(2,4-difluorophenyl)-6,7-dimethylpteridin-2-yl)-6-methylmorpholine] | ≤ 50 nM
16 | COc1cc(C2CN(c3nc(-c4ccc(C(F)(F)F)nc4)c4nc(C)c(C)nc4n3)CCO2)ccn1 (stereo not shown) [Example 322, 4-(6,7-dimethyl-4-(6-(trifluoromethyl)pyridin-3-yl)pteridin-2-yl)-2-(2-methoxypyridin-4-yl)morpholine] | ≤ 50 nM

Row | SMILES | EC50
17 | Cc1cc([C@H]2C[C@@H](c3cc4nc(C)cnc4c(-c4ccc(F)cc4F)n3)CCO2)ccn1 (racemic) [Example 307, 5-(2,4-difluorophenyl)-2-methyl-7-(2-(2-methylpyridin-4-yl)tetrahydro-2H-pyran-4-yl)pyrido[3,4-b]pyrazine] | 50 to 500 nM
18 | Cc1cc(C2CN(c3cc4nc(C)c(C)cc4c(-c4ccc(F)cc4F)n3)CCO2)ccn1 (stereo not shown) [Example 346, 4-(5-(2,4-difluorophenyl)-2,3-dimethyl-1,6-naphthyridin-7-yl)-2-(2-methylpyridin-4-yl)morpholine] | ≤ 50 nM
19 | Cc1ccc2c(C34CC(C(C)C)(C3)C4)nc([C@H]3CCO[C@@H](c4cnn(C5CC5)c4)C3)nc2n1 [Example 428, 2-((2R,4S)-2-(1-cyclopropyl-1H-pyrazol-4-yl)tetrahydro-2H-pyran-4-yl)-4-(3-isopropylbicyclo[1.1.1]pentan-1-yl)-7-methylpyrido[2,3-d]pyrimidine] | 50 to 500 nM
20 | Cc1cnc2c(C34CC(C(F)(F)F)(C3)C4)nc(N3C[C@@H](C)O[C@H](c4cnn(C5CC5)c4)C3)nc2n1 [Example 405, (2R,6R)-2-(1-cyclopropyl-1H-pyrazol-4-yl)-6-methyl-4-(7-methyl-4-(3-(trifluoromethyl)bicyclo[1.1.1]pentan-1-yl)pteridin-2-yl)morpholine] | 50 to 500 nM
21 | Cc1nc2nc(N3C[C@@H](C)O[C@@H](c4cnn(C5CC5)c4)C3)nc(-c3ccc(F)cc3F)c2nc1C [Example 427, (2S,6R)-2-(1-cyclopropyl-1H-pyrazol-4-yl)-4-(4-(2,4-difluorophenyl)-6,7-dimethylpteridin-2-yl)-6-methylmorpholine] | ≤ 50 nM
22 | Cc1nc2nc([C@@H]3CCO[C@@H](c4cnn(C5CC5)c4)C3)nc(-c3ccc(F)cc3Cl)c2nc1C [Example 321, 4-(2-chloro-4-fluorophenyl)-2-((2R,4R)-2-(1-cyclopropyl-1H-pyrazol-4-yl)tetrahydro-2H-pyran-4-yl)-6,7-dimethylpteridine] | 50 to 500 nM
23 | Cc1cnc2c(-c3ccc(F)cc3F)nc([C@@H]3CCO[C@@H](c4cnn(C5CC5)c4)C3)nc2n1 [Example 338, 2-((2R,4R)-2-(1-cyclopropyl-1H-pyrazol-4-yl)tetrahydro-2H-pyran-4-yl)-4-(2,4-difluorophenyl)-7-methylpteridine] | 500 to 3000 nM
24 | Cc1cnc2c(-c3ccc(F)cc3F)nc([C@H]3CCO[C@@H](c4cnn(C5CC5)c4)C3)cc2n1 (racemic) [Example 388, 5-(2,4-difluorophenyl)-2-methyl-7-[2-(1-cyclopropylpyrazol-4-yl)tetrahydropyran-4-yl]pyrido[3,4-b]pyrazine] | 50 to 500 nM
25 | Cc1nc2cc(N3CCOC(c4cnn(C5CC5)c4)C3)nc(-c3ccc(Cl)cc3F)c2nc1C (stereo not shown) [Example 348, 4-(5-(4-chloro-2-fluorophenyl)-2,3-dimethylpyrido[3,4-b]pyrazin-7-yl)-2-(1-cyclopropyl-1H-pyrazol-4-yl)morpholine] | ≤ 50 nM
26 | Cc1nc2cc(N3C[C@H](C)O[C@@H](c4cnn(C5CC5)c4)C3)nc(C34CC(C(F)(F)F)(C3)C4)c2nc1C (racemic) [Example 378, 2-(1-cyclopropylpyrazol-4-yl)-4-[2,3-dimethyl-5-[3-(trifluoromethyl)-1-bicyclo[1.1.1]pentanyl]pyrido[3,4-b]pyrazin-7-yl]-6-methyl-morpholine] | 50 to 500 nM
27 | Cc1cnc2c(C34CC(C(F)(F)F)(C3)C4)nc(N3CCO[C@H](c4cnn(C5CC5)c4)C3)nc2n1 [Example 359, (R)-2-(1-cyclopropyl-1H-pyrazol-4-yl)-4-(7-methyl-4-(3-(trifluoromethyl)bicyclo[1.1.1]pentan-1-yl)pteridin-2-yl)morpholine] | ≤ 50 nM
28 | Cc1nc2cc(N3CCOC(c4cnn(C5CC5)c4)C3)nc(-c3ccc(F)cc3F)c2nc1C (stereo not shown) [Example 342, 2-(1-cyclopropyl-1H-pyrazol-4-yl)-4-(5-(2,4-difluorophenyl)-2,3-dimethylpyrido[3,4-b]pyrazin-7-yl)morpholine] | ≤ 50 nM
29 | Cc1nc2cc(N3C[C@@H](C)O[C@@H](c4cnn(C5CC5)c4)C3)nc(C34CC(C(F)(F)F)(C3)C4)c2nc1C (racemic) [Example 379, 2-(1-cyclopropylpyrazol-4-yl)-4-[2,3-dimethyl-5-[3-(trifluoromethyl)-1-bicyclo[1.1.1]pentanyl]pyrido[3,4-b]pyrazin-7-yl]-6-methyl-morpholine] | 50 to 500 nM
30 | Cc1nc2nc(N3C[C@@H](c4cnn(C5CC5)c4)O[C@@H](C)C3)nc(C34CC(C(F)(F)F)(C3)C4)c2nc1C [Example 410, (2R,6S)-2-(1-cyclopropyl-1H-pyrazol-4-yl)-4-(6,7-dimethyl-4-(3-(trifluoromethyl)bicyclo[1.1.1]pentan-1-yl)pteridin-2-yl)-6-methylmorpholine] | ≤ 50 nM
31 | Cc1cnc2c(-c3ccc(F)cc3F)nc(N3CCOC(c4cnn(C5CC5)c4)C3)cc2n1 (stereo not shown) [Example 341, 2-(1-cyclopropyl-1H-pyrazol-4-yl)-4-(5-(2,4-difluorophenyl)-2-methylpyrido[3,4-b]pyrazin-7-yl)morpholine] | ≤ 50 nM
